Residues, ends and D or L forms follow the SMILES beside them. No end group written: not given here.
Assay: Hemolysis assay
Assay type: cell-based
Conditions: sheep; 2% (v/v) erythrocyte suspension, 0.05-1 mg/mL, 37 °C 30 min; read-out: hemolysis rate
Method: The hemolytic activity was evaluated using a modified reference method. Briefly, sheep erythrocytes were isolated by centrifugation at 1000× g for 5 min following washing with physiological saline. The washing procedure was repeated until the supernatant became colorless, and the erythrocyte pellet was collected. A 2% (v/v) erythrocyte suspension was prepared in physiological saline. Aliquots (1 mL) of the suspension were incubated with peptide solutions (KW, WQIWYK, […]) at concentrations of 0.05, 0.1, 0.5, and 1 mg/mL. Experimental controls included 0.1% Triton X-100 (positive control) and sterile PBS (negative control). Following incubation at 37 °C for 30 min, samples were centrifuged at 1000× g for 5 min. Hemoglobin release was quantified by measuring the absorbance of 200 μL supernatant at 425 nm using a microplate reader. The hemolysis percentage was calculated as follows:Hemolysis (%) = (As − AN)/(AP − AN) × 100 where As, AN, and AP represent the absorbance values of the sample, negative control, and positive control, respectively.

Compound: NCCCC[C@H](N)C(=O)N[C@@H](Cc1c[nH]c2ccccc12)C(=O)O [KW] (H-Lys-Trp-OH; N-terminus and C-terminus assumed)
- hemolysis at 30 min: < 5%

Compound: WQIWYK [WQIWYK]
- hemolysis at 30 min: < 5%

— article PMC11990805, “Investigation of Anticancer Peptides Derived from Arca Species Using In Silico Analysis” (Molecules, 2025)
